The values that follow are results of earlier work, collected in US12016830B2, “Pharmaceutical compositions comprising isotretinoin and processes for preparation and uses thereof” (Acrotech Biopharma Inc., priority 2022, dated 2024).

For the data set the following is noted: background statement.

`CC1=C(/C=C/C(C)=C/C=C/C(C)=C\C(=O)O)C(C)(C)CCC1` [Isotretinoin, 13-cis retinoic acid]: the oral bioavailability entry is “low oral bioavailability”.
